≈ marks a conversion by molar mass, not a printed value.
Key:
[1] = Lipophilicity, logD of compound at pH 7.4; assay type: physicochemical; conditions: buffer
[2] = Kinetic aqueous solubility of compound at pH 7.4; assay type: physicochemical; conditions: read-out: Kinetic_solubility
[3] = Metabolic stability in human hepatocytes assessed as compound remaining measured after 60 mins; assay type: ADME, cell-based, Hepatocyte; conditions: read-out: Stability
[4] = Kinetic aqueous solubility of compound at pH 4.5; assay type: physicochemical; conditions: read-out: Kinetic_solubility

SMILES | logD [1] | solubility kinetic [2] [µM] | remaining at 1 h [3] [%] | solubility kinetic [4] [µM]
Cc1ccc(NC(=O)N2CCO[C@@H](C(F)(F)F)C2)cc1-c1cc(OCCO)nc(N2CCOCC2)c1 |  | 56 (≈ 28.6 µg/mL) | 54 | 
Cc1ccc(NC(=O)N2CCO[C@H](C(F)(F)F)C2)cc1-c1cc(OCCO)nc(N2CCOCC2)c1 | 3.46 | 62 (≈ 31.7 µg/mL) | 93 | 

The remaining lines, values ahead:

logD [1] | solubility kinetic [2] [µM] | remaining at 1 h [3] [%] | solubility kinetic [4] [µM] | SMILES
3.51 | 83 (≈ 41 µg/mL) | 6 |  | Cc1ccc(NC(=O)N2CC[C@H](C(F)(F)F)C2)cc1-c1cc(OCCO)nc(N2CCOCC2)c1
3.73 | 39 (≈ 19.8 µg/mL) | 19 | 35 (≈ 17.8 µg/mL) | Cc1ccc(NC(=O)N2CC[C@@H](CC(F)(F)F)C2)cc1-c1cc(OCCO)nc(N2CCOCC2)c1
3.49 | 83 (≈ 41 µg/mL) | 7 |  | Cc1ccc(NC(=O)N2CC[C@@H](C(F)(F)F)C2)cc1-c1cc(OCCO)nc(N2CCOCC2)c1
